Laboratory results: patent US6160166A, “Phosphonated agents and their antiangiogenic and antitumorigenic use” (priority 1999, dated 2000)
Entries after “also recorded” stand apart in the source; their conditions may differ.

Experiments:
DNA synthesis = conditions: Jindal et al. (1990); cited from earlier work
[1] = tested on: human microvascular endothelial cells (HMEC-1, HMVEC-d); test: 3H-Leucine incorporation, inhibition of protein synthesis; format: cell-based; conditions: time course
Experimental: For each time period, six replicate flasks are set up. The volume of the medium MCDB-131 is 10 ml per flask. After incubation, the medium was replaced with fresh MCDB-131 containing […] of ^3 H-leucine and incubated for a further 90 min. TritonX-100 (240 μl, 10%) were then added to the contents of each flask and agitated. Trichloroacetic acid (TCA) (4 ml, 20%) is added, the contents mixed and the flasks left overnight at room temperature. After 24 hr, the flask contents was suspended by shaking, transferred to tubes and centrifuged at 4300 g. The pellets were resuspended in 10% TCA and recentrifuged and then resuspended in 3.0 ml of 0.1 M NaOH. Half of this volume was transferred to scintillation vials in 10 ml of Emulsifier Safe scintillation fluid (Packard) while the remaining 1.5 ml was used to assay DNA content (LaBarca and Paigen, 1980). The radioactive counts due to protein synthesized in the presence of ^3 H-leucine was normalized to counts/μg DNA. Protein synthesis by cells treated with the phosphonic acid agents are expressed relative to that of control cells as the percent of inhibition for each time of incubation.
After this period of time, the rate steadily declines.

[2] = tested on: different cancer cell lines; test: MTT cell proliferation, different cancer cell lines; format: cell-based, human; conditions: cancer cell lines in vitro
[3] = tested on: human dermal Microvascular endothelial cells; test: Inhibition of bFGF-stimulated growth of human microvascular endothelial cells; format: cell-based; conditions: Homo sapiens, Endothelial cell; bFGF-stimulated; estimated from dose response curve
Experimental: Inhibition of cell growth was evaluated by measuring total protein and total DNA and the IC50 was estimated for each dose response curve.

p34cdc2 kinase = p34cdc2 kinase activity and tyrosine phosphorylation; format: biochemical, human
Experimental: The effects of selected phosphonic acid agents on the p34cdc2-related kinase activity are carried out essentially as described by Bojanowski et al. (1994).
Cytoplasmic and nuclear extractions: 100 million cells (HMVEC-1 or HMEC-d) are washed twice with cold PBS and incubated in hypotonic phosphate buffer for 45 min on ice. The cells are then disrupted with a Dounce homogenizer and nuclei separated from the cytoplasmic fraction by centrifugation and extensive washing with hypotonic buffer. The nuclei are incubated for 30 min in the presence of 350 mM NaCl and the nonsoluble nuclear material removed by ultracentrifugation (20 min at 40000 rpm in TL 100 Beckman ultracentrifuge). The protein concentration are adjusted to 1.5 mg/ml, 20% of glycerol are added and the extracts stored at -20° C. […]
Reactions are stopped by placing the samples on ice and spotting 5 μl of the reaction mixture onto P81 phosphocellulose filters (Whatman). Filters are washed three times in 50 mM phosphoric acid, dried and the radioactivity retained on the filters are determined by liquid scintillation (Beckman).
Western blot: the precipitates are electrophoresed in 12.5% 12×12 cm ready-made polyacrylamide gels (Daichi Co.) and the proteins transferred to Immobilon PVDF membranes (Millipore). […] A Pharmacia LKB image master DTS chromoscan are used for band quantification (Bojanowski et al., 1994).

[4] = tested on: chick chorioallantoic membrane (CAM); test: Chick egg chorioallantoic membrane (CAM) assay, 11-day, established vessels; format: in vivo
Experimental: According to Ausprunk et al. (1974), capillary angiogenesis in the CAM is completed by day 11. Measurements of intercapillary distances are also consistent with the cessation of capillary growth after day 10. […] The implants were prepared as previously described by Gagliardi et al. (1992), implanted on day 11 and read on day 13.
(§1) Comparison of the inhibition of angiogenesis by 70 nmol of
(§2) suramin or a equimolar amount of a phosphonic acid agents in the
(§3) 6-day and 11-day chick egg chorioallantoic (CAM) assay.

[5] = tested on: tyrosine specific phosphorylation of cellular proteins; conditions: Ghosh and Miller, 1993; cited from earlier work
[6] = tested on: human microvascular endothelial cells; test: Detachment / toxicity of cultured human microvascular endothelial cells; format: cell-based
[7] = tested on: microvascular endothelial cell migration; test: Endothelial cell migration in vitro; format: cell-based
[8] = tested on: chick chorioallantoic membrane (CAM); test: Chick egg chorioallantoic membrane (CAM) assay, 6-day, growing vessels: inhibition of angiogenesis; format: in vivo
Source text: The purpose of this experiment was to test the ability of the phosphonic acid agents described above to inhibit angiogenesis. […]
as §1, §2, §3

[9] = tested on: human cerebral meningioma cells; conditions: Schrell et al., 1995; cited from earlier work
[10] = tested on: human microvascular endothelial cells; test: Sensitivity of microvascular versus large vessel endothelium to inhibition; format: cell-based
[11] = tested on: fetal bovine aortic endothelial cells; conditions: Takano et al., 1994; cited from earlier work
Toxicity in vivo in mice = test: Toxicity in vivo in mice; parameters: species or system mouse
Experimental: Mice were injected intraperitoneally with 0-150 μM/kg body weight of the compounds to be tested, every other day for a total of five injections. The animals were carefully observed daily and weighed every third day for 28 days after the last injection. After the 28-day observation period, the animals were euthanized, blood was collected through cardiac puncture and the following tissues were subjected to histological investigation: heart, lungs, liver, spleen, adrenal gland, kidney, sciatic nerve, soleus muscle and brain.
It is clear from studies so far that compounds with equipotent or greater antitumor activity but with substantially lower toxicity are of considerable potential therapeutic value as an antitumorigenic or antiangiogenic agent. […] The animals were carefully observed daily and weighed every third day for 28 days after the last injection. After the 28-day observation period, the animals were euthanized, blood was collected through cardiac puncture and the following tissues were kept for histological investigation: heart, lungs, liver, spleen, adrenal gland, kidney, sciatic nerve, soleus muscle and brain.

[12] = tested on: binding of growth factors to their receptors; conditions: intact cells; cited from earlier work

Experimental for HMEC-1 cells: Triplicates were carried out for each period of incubation. At the end of each incubation period, the cells were processed through different washings and finally to differential centrifugation. Different cell fractions were transferred to separate scintillation vials, solubilized in a liquid scintillation cocktail and counted in a 2000 CA TRICARB Liquid Scintillation Counter.

Cc1ccc(C(=O)Nc2ccc(S(=O)(=O)O)c3cc(S(=O)(=O)O)cc(S(=O)(=O)O)c23)cc1NC(=O)c1cccc(NC(=O)Nc2cccc(C(=O)Nc3cc(C(=O)Nc4ccc(S(=O)(=O)O)c5cc(S(=O)(=O)O)cc(S(=O)(=O)O)c45)ccc3C)c2)c1 [suramin]
effect on DNA synthesis (DNA synthesis): inhibitory action of suramin on DNA synthesis | effect on protein synthesis [1]: no change in the rate of protein synthesis until suramin and the cells have been incubated together for at least 24 hr | antiproliferative activity, in words [2]: inhibited cell proliferation in a dose-related manner | IC50 [3]: 437 µM | time to plateau of cell incorporation (HMEC-1 cells): around 24 hr | inhibition of p34cdc2 kinase (p34cdc2 kinase): inhibits p34cdc2 kinase activity in a dose-related manner | p34cdc2 kinase tyrosine phosphorylation / mobility (p34cdc2 kinase; Western blot, anti-phosphotyrosine immunoblot): a difference in p34cdc2 kinase tyrosine phosphorylation | 11-day CAM % Inhibition ([4]; 70 nmol or equimolar amount): 50% | inhibitory activity in the 11-day CAM, in words ([4]; established vessels): showed antiangiogenic activity; also recorded: clearly affected both the growing and established vascular cells | effect on tyrosine specific phosphorylation [5]: increase the global tyrosine specific phosphorylation of cellular proteins in vivo | floating cells ([6]; 24 hr of treatment): a large number of floating cells | time for detection of suramin toxicity on endothelial cells ([6]; concentrations higher than 200 μM): > 12 h | minimal effective concentration ([7]; Endothelial cell, read-out: concentration inhibiting endothelial cell migration): > 150 µg/mL | inhibition of migration, in words ([7]; number of cells migrated and distance traveled): significantly inhibited endothelial cell migration | 6-day CAM % Inhibition of angiogenesis ([8]; 70 nmol or equimolar amount, 6-day CAM): 64% | inhibition of angiogenesis in the 6-day CAM, in words ([8]; 6-day CAM, rapidly growing vessels): showed antiangiogenic activity; also recorded: clearly affected both the growing and established vascular cells | ID50, dose that produces 50% inhibition of angiogenesis ([8]; CAM assay): 75 nmol | effect on proliferation and cell cycle [9]: inhibited proliferation of human cerebral meningioma cells and increased the percentage of cells in the S and G2/M phase of the cell cycle; also recorded: inhibited meningioma cell proliferation in five different tumor lines by arresting cells in G2-M and S phases of the cell cycle | sensitivity of microvascular versus large vessel endothelium [10]: much more sensitive to inhibition | concentration inhibiting plasminogen activator activity induced by bFGF [11]: higher than 250 μg/ml | reduction in body weight (Toxicity in vivo in mice; 150, 75 and 35 μM/kg body weight, injection period): 10-15% | histological findings (Toxicity in vivo in mice; after 28-day observation, suramin or equimolar doses): dose-related frequency of lipoid degeneration of the zona reticularis of the adrenal gland and vacuolar changes in the proximal convoluted tubules of the renal tubular epithelium | mortality (Toxicity in vivo in mice; i.p., every other day, five injections, suramin 150 μM/kg, agents up to 150 μM/kg): died before completion of the five injections | body weight, in words (Toxicity in vivo in mice; i.p., five injections, 28 days observation): body weight stabilized but did not return to normal | effect on binding of growth factors to their receptors [12]: able to disrupt the binding of growth factors to their receptors in intact cells
